Reference: ChEMBL document CHEMBL1201862, “PubChem BioAssay data set” (2004)
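Cells were grown in 96-well plates and exposed to each compound for 48 hours at five concentrations; endpoints were interpolated linearly between bracketing concentrations, or set to the highest concentration if not reached. The concentration for 50% growth inhibition is given as GI50.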 The source made the active and inactive calls. Rule as the data show it: active = GI50 up to about 1.1 µM and inactive = higher.

How the values were obtained:
Test in all cases: NCI-60 cell line screen, 48 h
SN12C = system: SN12C
CAKI-1 = system: CAKI-1
SF-539 = system: SF-539
HT-29 = system: HT-29
HL-60 = system: HL-60
HCC 2998 = system: HCC 2998
SW-620 = system: SW-620
Malme-3M = system: Malme-3M
SR = system: SR
OVCAR-4 = system: OVCAR-4
NCI-H23 = system: NCI-H23
UACC-62 = system: UACC-62
OVCAR-8 = system: OVCAR-8
CCRF-CEM = system: CCRF-CEM
HCT-15 = system: HCT-15
OVCAR-5 = system: OVCAR-5
HOP-62 = system: HOP-62
MCF7 = system: MCF7

| SMILES | GI50 (SN12C) | GI50 (CAKI-1) | GI50 (SF-539) | GI50 (HT-29) | GI50 (HL-60) | GI50 (HCC 2998) | GI50 (SW-620) | GI50 (Malme-3M) | GI50 (SR) | GI50 (OVCAR-4) | GI50 (NCI-H23) | GI50 (UACC-62) | GI50 (OVCAR-8) | GI50 (CCRF-CEM) | GI50 (HCT-15) | GI50 (OVCAR-5) | GI50 (HOP-62) | GI50 (MCF7) |
| --- | --- | --- | --- | --- | --- | --- | --- | --- | --- | --- | --- | --- | --- | --- | --- | --- | --- | --- |
| O=C(/C=C/c1ccccc1)CCN1CCCCC1 | 20.3 µM (inactive) | 87.9 µM (inactive) | 17.8 µM (inactive) | 19.7 µM (inactive) | 29.4 µM (inactive) | > 100 µM (inactive) | 18.8 µM (inactive) | > 100 µM (inactive) | 25.9 µM (inactive) | 53 µM (inactive) | 24.8 µM (inactive) | 55.2 µM (inactive) | 18.5 µM (inactive) | 39.4 µM (inactive) | 22.6 µM | > 100 µM (inactive) | > 100 µM (inactive) | 27.4 µM (inactive) |
| COc1ccc(-c2cc(=O)c3c(OC)c(OC)c(OC)c(OC)c3o2)c(OC)c1 | 20.6 µM (inactive) | 29.8 µM (inactive) | 61.4 µM (inactive) | 24.2 µM (inactive) | 29.7 µM (inactive) | 18.8 µM (inactive) | 31.1 µM (inactive) | 30.5 µM (inactive) | > 100 µM (inactive) | 28.3 µM (inactive) | 16.9 µM (inactive) | 16 µM (inactive) | 21.9 µM (inactive) | 33.8 µM (inactive) | 25.6 µM | 70.8 µM (inactive) | 26.7 µM (inactive) | 20.5 µM (inactive) |
| CSCC[C@H](NC(=O)[C@H](CC(C)C)NC(=O)[C@@H](Cc1ccccc1)NC(=O)CNC(=O)[C@@H](NC(=O)[C@H](C)NC(=O)[C@H](Cc1c[nH]c2ccccc12)NC(=O)[C@H](CCC(N)=O)NC(=O)[C@H](N)CC(N)=O)C(C)C)C(N)=O | > 12.5 µM (inactive) | > 12.5 µM (inactive) | > 12.5 µM (inactive) | > 12.5 µM (inactive) | > 12.5 µM (inactive) | > 12.5 µM (inactive) | > 12.5 µM (inactive) | > 12.5 µM (inactive) | 0.0269 µM (active) | > 12.5 µM (inactive) | > 12.5 µM (inactive) | > 12.5 µM (inactive) | > 12.5 µM (inactive) | > 12.5 µM (inactive) | > 12.5 µM | > 12.5 µM (inactive) | > 12.5 µM (inactive) | > 12.5 µM (inactive) |
| O=C(O)c1cc(/N=C/c2ccccc2O)cc(C(=O)O)c1 | > 100 µM (inactive) | > 100 µM (inactive) | > 100 µM (inactive) | > 100 µM (inactive) | > 100 µM (inactive) | > 100 µM (inactive) | > 100 µM (inactive) | > 100 µM (inactive) | > 100 µM (inactive) | > 100 µM (inactive) | > 100 µM (inactive) | > 100 µM (inactive) | > 100 µM (inactive) | > 100 µM (inactive) | > 100 µM | > 100 µM (inactive) | > 100 µM (inactive) | > 100 µM (inactive) |
| N/N=C1\CCCc2c1no[n+]2[O-] | > 100 µM (inactive) | > 100 µM (inactive) | > 100 µM (inactive) | > 100 µM (inactive) | > 100 µM (inactive) | > 100 µM (inactive) | > 100 µM (inactive) | > 100 µM (inactive) | > 100 µM (inactive) | > 100 µM (inactive) | > 100 µM (inactive) | > 100 µM (inactive) | > 100 µM (inactive) | > 100 µM (inactive) | > 100 µM | > 100 µM (inactive) | > 100 µM (inactive) | > 100 µM (inactive) |
| COc1cc2c(cc1C)NC(=O)/C2=C\c1ccncc1 | 6.15 µM (inactive) | 3.57 µM (inactive) | 2.82 µM (inactive) | 4.92 µM (inactive) | 3.73 µM (inactive) | 12.3 µM (inactive) | 4.49 µM (inactive) | 15.5 µM (inactive) | 2.61 µM (inactive) | > 100 µM (inactive) | 3.43 µM (inactive) | 5.53 µM (inactive) | 2.52 µM (inactive) | 2.75 µM (inactive) | 4.28 µM | 10.9 µM (inactive) | 6.97 µM (inactive) | 3.03 µM (inactive) |
| O=C1C(NCCc2cc(Br)c(O)c(Br)c2)=CC(=O)c2ncccc21 | 3.8 µM (inactive) | 7.29 µM (inactive) | 2.37 µM (inactive) | 3.63 µM (inactive) | 2.32 µM (inactive) | 6.58 µM (inactive) | 4.24 µM (inactive) | 1.26 µM (inactive) | 1.87 µM (inactive) | 6 µM (inactive) | 0.659 µM (active) | 1.83 µM (inactive) | 3.85 µM (inactive) | 3.39 µM (inactive) | 5.79 µM | 6.52 µM (inactive) | 3.28 µM (inactive) | 4.09 µM (inactive) |
| COC(=O)C1(Cc2ccccc2)Cc2ccccc2C1O (stereo not drawn) | > 100 µM (inactive) | > 100 µM (inactive) | > 100 µM (inactive) | > 100 µM (inactive) | > 100 µM (inactive) | > 100 µM (inactive) | > 100 µM (inactive) | > 100 µM (inactive) | 92.9 µM (inactive) | 29.8 µM (inactive) | 63 µM (inactive) | > 100 µM (inactive) | > 100 µM (inactive) | > 100 µM (inactive) | > 100 µM | > 100 µM (inactive) | > 100 µM (inactive) | > 100 µM (inactive) |
| O=C(O)CCC(NC(=O)c1ccc(Oc2nc3ccccc3nc2-c2ccccc2)cc1)C(=O)O (stereo not drawn) | > 100 µM (inactive) | > 100 µM (inactive) | > 100 µM (inactive) | > 100 µM (inactive) | > 100 µM (inactive) | > 100 µM (inactive) | > 100 µM (inactive) | > 100 µM (inactive) | > 100 µM (inactive) | > 100 µM (inactive) | > 100 µM (inactive) | > 100 µM (inactive) | > 100 µM (inactive) | > 100 µM (inactive) | > 100 µM | > 100 µM (inactive) | > 100 µM (inactive) | > 100 µM (inactive) |
| Cn1cccc1-c1ccc(-c2ccc(CO)[se]2)[se]1 | 68.9 µM (inactive) | 0.188 µM (active) | 11.5 µM (inactive) | 12.6 µM (inactive) | 7.35 µM (inactive) | 2.02 µM (inactive) | 2.15 µM (inactive) | 66.1 µM (inactive) | 17.1 µM (inactive) | 2.61 µM (inactive) | 25.9 µM (inactive) | 9.57 µM (inactive) | 27.7 µM (inactive) | 11.5 µM (inactive) | 12.6 µM | 53.5 µM (inactive) | 21.6 µM (inactive) | 0.906 µM (active) |
| Cc1ccc(S(=O)(=O)N/N=C2\C3CC4CC(C3)C2C4)cc1 (stereo not drawn) | > 100 µM (inactive) | > 100 µM (inactive) | > 100 µM (inactive) | > 100 µM (inactive) | > 100 µM (inactive) | > 100 µM (inactive) | > 100 µM (inactive) | > 100 µM (inactive) | > 100 µM (inactive) | > 100 µM (inactive) | > 100 µM (inactive) | > 100 µM (inactive) | > 100 µM (inactive) | > 100 µM (inactive) | > 100 µM | > 100 µM (inactive) | > 100 µM (inactive) | > 100 µM (inactive) |
| O=C(O)CCC1C(=O)C2CCN1CC2 (stereo not drawn) | > 100 µM (inactive) | > 100 µM (inactive) | > 100 µM (inactive) | > 100 µM (inactive) | > 100 µM (inactive) | > 100 µM (inactive) | > 100 µM (inactive) | > 100 µM (inactive) | > 100 µM (inactive) | > 100 µM (inactive) | > 100 µM (inactive) | > 100 µM (inactive) | > 100 µM (inactive) | > 100 µM (inactive) | > 100 µM | > 100 µM (inactive) | > 100 µM (inactive) | > 100 µM (inactive) |
| CC(C)(C)OC(=O)NNCC(O)COc1ccccc1 (stereo not drawn) | > 100 µM (inactive) | > 100 µM (inactive) | > 100 µM (inactive) | > 100 µM (inactive) | 0.0318 µM (active) | > 100 µM (inactive) | > 100 µM (inactive) | > 100 µM (inactive) | > 100 µM (inactive) | > 100 µM (inactive) | > 100 µM (inactive) | > 100 µM (inactive) | > 100 µM (inactive) | > 100 µM (inactive) | > 100 µM | > 100 µM (inactive) | > 100 µM (inactive) | > 100 µM (inactive) |
| O=c1c2cnccc2cc2c3ccccc3ccn12 | 61.2 µM (inactive) | 9.89 µM (inactive) | > 100 µM (inactive) | 28.2 µM (inactive) | 17.7 µM (inactive) | 53.7 µM (inactive) | 49.8 µM (inactive) | 57.3 µM (inactive) | 2.03 µM (inactive) | 50.4 µM (inactive) | 51.6 µM (inactive) | 4.7 µM (inactive) | 11.6 µM (inactive) | 36.6 µM (inactive) | 23.1 µM | > 100 µM (inactive) | > 100 µM (inactive) | 13.2 µM (inactive) |
| O=C(CNc1c(Cl)cccc1Cl)NC1C=Cc2ccc(S(=O)(=O)Nc3c(Cl)cccc3Cl)cc2C1=O (stereo not drawn) | > 100 µM (inactive) | 47.5 µM (inactive) | > 100 µM (inactive) | 50.2 µM (inactive) | 75.2 µM (inactive) | 67.5 µM (inactive) | > 100 µM (inactive) | > 100 µM (inactive) | > 100 µM (inactive) | > 100 µM (inactive) | > 100 µM (inactive) | 79.6 µM (inactive) | > 100 µM (inactive) | 53.2 µM (inactive) | 79.1 µM | 47.1 µM (inactive) | 41.4 µM (inactive) | > 100 µM (inactive) |
| CC(C)=CCOc1cc(NC(=S)c2ccsc2C)ccc1Cl | 19 µM (inactive) | > 100 µM (inactive) | 55.1 µM (inactive) | > 100 µM (inactive) | 44.1 µM (inactive) | 3.49 µM (inactive) | > 100 µM (inactive) | 49 µM (inactive) | 18.7 µM (inactive) | 16.7 µM (inactive) | 17.1 µM (inactive) | 15.6 µM (inactive) | 44.4 µM (inactive) | 39.6 µM (inactive) | > 100 µM | 86.7 µM (inactive) | 21.4 µM (inactive) | 15.4 µM (inactive) |
